Converted amounts (≈) assume the structure as drawn. Structures can show the parent of a compound that is named as a salt. Where two headings read alike, the source gives them in different places.
Legend:
[1] = biological target: T1, adenosine receptor sites on guinea pig cortical membranes (Cavia porcellus, UniProt P47745); experiment: Adenosine Receptor Binding Assay, inhibition of specific [^3 H]-cyclohexyladenosine ([^3 H]CHA) binding; details: 4 nM [^3 H]CHA, 120 minutes at 23° C.
T1 sequence (P47745 1-326): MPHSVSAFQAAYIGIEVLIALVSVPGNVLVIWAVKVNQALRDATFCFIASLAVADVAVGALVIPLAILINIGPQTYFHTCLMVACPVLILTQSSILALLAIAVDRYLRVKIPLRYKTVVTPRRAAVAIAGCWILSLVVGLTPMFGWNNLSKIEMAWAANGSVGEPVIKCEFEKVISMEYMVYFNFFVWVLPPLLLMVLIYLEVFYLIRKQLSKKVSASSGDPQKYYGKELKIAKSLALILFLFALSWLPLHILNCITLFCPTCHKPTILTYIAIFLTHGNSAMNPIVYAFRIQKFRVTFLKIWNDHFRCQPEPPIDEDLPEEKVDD
Description: Adenosine Receptor Binding Assay. The potency of 8-arylxanthine compounds to inhibit the specific binding of [^3 H]-cyclohexyladenosine ([^3 H]CHA) to adenosine receptor sites on guinea pig cortical membranes was examined using standard in vitro ligand binding techniques. […] Briefly, guinea pig cortical tissue was homogenized in ice cold 50 mM Tris HCl buffer (pH 7.4) using a Brinkman Polytron. The homogenate was centrifuged at 48,000 x g for 10 minutes and the resulting tissue pellet was suspended in fresh cold buffer to yield a tissue concentration of 10 mg (wet weight)/ml. This tissue suspension was incubated for 30 minutes at 37° C. in the presence of adenosine deaminase (0.2 I.U./mg tissue). Following this incubation, the tissue suspension was centrifuged as before and the resulting pellet was suspended in fresh buffer at a concentration of 7-10 mg tissue (wet weight)/ml. Inhibition of the specific binding of [^3 H]CHA (New England Nuclear; 25 Ci/mmol) was examined in a total volume of 2 ml containing 50 mM Tris HCl, 7-10 mg of cortical tissue (1 ml of tissue suspension), 4 nM [^3 H]CHA and various concentrations of the test compounds. Nonspecific binding was determined in the presence of 10^-5 M 2-chloroadenosine. The binding reaction was carried out for 120 minutes at 23° C. and was terminated by vacuum filtration over Whatman GF/B filters using a Brandel M-48R Cell Harvester. The filters were washed 3 times with 3 ml of cold buffer and placed in scintillation vials in a Beckman LS 3801 scintillation counter. Dose-inhibition curves were generated with 10-12 concentrations of the test compound using triplicate incubations. The inhibition constants (Ki value) were calculated using EBDA, a log-logit iterative curve fitting program (McPhearson, Comput. Prog. Biomed. 107:220, 1983).

A1 receptor = biological target: T2, A1 receptor (Rattus norvegicus, UniProt P25099); experiment: biochemical; details: for Ki: Schild analysis, A1 receptor mediated inhibition of adenylate cyclase; for Adenylate cyclase A2 /A1: ratio of A2 Ki to A1 Ki
T2 sequence (P25099 1-326): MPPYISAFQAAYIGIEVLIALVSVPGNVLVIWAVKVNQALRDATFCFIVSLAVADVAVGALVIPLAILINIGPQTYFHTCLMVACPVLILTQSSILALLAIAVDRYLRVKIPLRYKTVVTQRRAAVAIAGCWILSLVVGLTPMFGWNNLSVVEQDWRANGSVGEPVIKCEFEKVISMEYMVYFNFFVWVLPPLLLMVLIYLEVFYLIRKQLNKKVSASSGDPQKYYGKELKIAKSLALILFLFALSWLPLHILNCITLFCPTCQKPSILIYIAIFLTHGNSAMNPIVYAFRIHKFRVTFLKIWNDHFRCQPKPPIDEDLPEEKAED
Description: The A1 receptor mediated inhibition of adenylate cyclase activity was measured by a modification of the procedure of Londos et al. (Proc. Natl. Acad. Sci. 75: 5362, 1978). Membrane protein (10-15 μg) was added to a reaction mixture containing a final concentration of 25 mM Tris-HCl (pH 7.4), 2 mM MgCl2 50 μM ATP, 50 μM cAMP, 1 mM dithiothreitol, 0.25 mg/ml BSA, 1 IU/ml adenosine deaminase, 5 mM creatine phosphate, 0.2 mg/ml creatine phosphokinase, 80 mM NaCl, [α^32 P]ATP (1.5 c 10^-6 DPM) and 100M GTP in 100 μl final volume. Incubations were carried out for 10 minutes at 24° C.
(§1) The Ki values for the test compounds were derived from Schild analysis as described by Tallarida et al. (Life Sciences 25: 637, 1979) in which the progressive shift in the dose response to a standard agonist was assessed using 3 concentrations of the test compound distributed over a 100-fold molar range. All incubations were performed in triplicate.

A2 receptor = A2 receptor (Rattus norvegicus, UniProt P30543); experiment: biochemical; details: Schild analysis; A2 receptor mediated stimulation of adenylate cyclase, PC12 membranes
Description: The A2 receptor mediated stimulation of adenylate cyclase was measured by a modification of the procedure of Premont et al. (Molec. Pharmacol. 16: 790, 1979). Typically, pheochromocytoma cell (PC12) membranes were thawed and added to a reaction mixture containing a final concentration of 25 mM Tris-HCl, pH 7.1, 1 mM MgCl2, 50 μM ATP, 50 μM cAMP, 0.1 mM papaverine, 0.4 IU/ml adenosine deaminase, 5 mM creatine phosphate, 0.2 mg/ml creatine phosphokinase, 10 μg membrane protein, [α^32 P]ATP (μ10^-6 DPM), 5 μM GTP, and various concentrations of adenosine agonists and/or antagonists in a final volume of 100 μl. The reaction was initiated with the addition of tissue and incubated 30° C. for 20 minutes. Reactions were terminated with 100 μl of 40 mM ATP, 1.4 mM cAMP and 2% SDS. ^32 P-cAMP isolated according to the procedure to the procedure of Salomon et al. (Adv. Cyclic Nucleotide Res. 10: 35, 1979).
as §1

[2] = tested on: NECA-induced depression of force and rate of an isolated guinea pig heart; experiment: NECA Depressed Langendorff Heart; details: for IC50: guinea pig; for NECA - Depressed Langendorff Heart Force/Rate: ratio of force to rate TC50
Description: NECA Depressed Langendorff Heart. Hearts were rapidly excised from male guinea-pigs and transferred to a beaker containing a Krebs-bicarbonate solution at 5° C. Each heart was gently massaged to clear it of blood and clots, and the surrounding tissue was cut away. The cut aortic stump was secured to a glass cannula for retrograde perfusion of the coronary circulation.
Perfusion was at a constant rate of 5-7 ml/min, produced with a Holter peristaltic pump. […] Alterations in perfusion pressure arising from changes in coronary vascular resistance were recorded on a Gould recorder by means of Gould pressure transducers attached at a sidearm of the aortic cannula. Isometric contractions of the heart were recorded with a Grass transducer attached by a suture via a pulley to a clip on the apex of the ventricles. Rates of contraction were determined by counting heart beats.
Drugs were added directly into the perfusion solutions. Drug concentrations were changed by switching solutions. Cardiac functions were depressed with NECA or adenosine by infusing a solution of one or the other ([…]) into the perfusion solution through an injection port located immediately adjacent to the warming coil. IC50 is defined as the concentration of compound that will cause 50 percent inhibition of the NECA-induced depression of force and rate of an isolated guinea pig heart.

[3] = Solubility (mg/ml) 37° C.
animals = details: in vivo; cited from earlier work
adenosine (A1) receptor = details: cited from earlier work
guinea pig thymocytes = details: less potent than 8-phenyltheophylline; NECA-induced cyclic AMP accumulation; cited from earlier work
adenosine receptors = details: Daly et al. J. Med. Chem. 1985; cited from earlier work
[4] = 50 percent inhibition of the NECA-induced depression of force, read-out: NECA - Depressed Langendorff Heart TC50 Force
[5] = 50 percent inhibition of the NECA-induced depression of rate, read-out: NECA - Depressed Langendorff Heart TC50 Rate

A2 receptor, sequence (P30543 whole entry): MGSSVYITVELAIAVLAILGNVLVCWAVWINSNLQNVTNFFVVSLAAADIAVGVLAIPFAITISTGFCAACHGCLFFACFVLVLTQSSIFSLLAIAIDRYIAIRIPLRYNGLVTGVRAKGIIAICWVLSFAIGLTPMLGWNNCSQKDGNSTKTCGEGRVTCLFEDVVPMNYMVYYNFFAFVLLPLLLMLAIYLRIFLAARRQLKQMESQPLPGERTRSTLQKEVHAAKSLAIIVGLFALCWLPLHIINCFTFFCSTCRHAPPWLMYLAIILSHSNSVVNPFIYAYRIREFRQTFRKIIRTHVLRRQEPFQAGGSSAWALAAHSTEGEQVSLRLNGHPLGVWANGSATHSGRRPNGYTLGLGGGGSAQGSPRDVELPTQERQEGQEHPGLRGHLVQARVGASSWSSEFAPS

| Structure (SMILES) | Ki [1] | Ki (A1 receptor) | Adenylate cyclase A2 /A1 (A1 receptor) | Ki (A2 receptor) | IC50 [2, 4] | IC50 [2, 5] | NECA - Depressed Langendorff Heart Force/Rate [2] | solubility [3] | force and rate properties / effect on force and rate of contraction (in words) ([2]; NECA depressed Langendorff heart, guinea pigs) | overt activity in animals (animals) | selectivity toward A1 adenosine receptor (adenosine (A1) receptor) | potency relative to 8-phenyltheophylline (guinea pig thymocytes) | selectivity after introduction of the sulfonyl group (adenosine receptors) |
| --- | --- | --- | --- | --- | --- | --- | --- | --- | --- | --- | --- | --- | --- |
| CCCn1c(=O)c2[nH]c(-c3ccc(C(=O)OCC)cc3)nc2n(CCC)c1=O [Pr Pr H COOEt, 1,3-Dipropyl-8-(4-carboethoxyphenyl)xanthine] | 0.423 µM | 0.0269 µM | 20 | 0.529 µM | 4.78 µM | 7.84 µM | 0.61 | – | – | – | – | – | – |
| CCCn1c(=O)c2[nH]c(-c3ccc(C(=N)NC)cc3)nc2n(CCC)c1=O [Pr Pr H C(NH)NHMe, 1,3-Dipropyl-8-(4-N-methylamidinophenyl)xanthine hydrochloride hydrate] | 0.129 µM | 0.012 µM | 11.7 | 0.14 µM | 1.47 µM | 3.77 µM | 0.39 | 1000 µg/mL | – | – | – | – | – |
| CCCn1c(=O)c2[nH]c(-c3ccc(O)c(CN(C)C)c3)nc2n(CCC)c1=O [Pr Pr CH2 NMe2 OH, 1,3-Dipropyl-8-(3-N,N-dimethylaminomethyl-4hydroxyphenyl)xanthine hydrochloride hydrate] | 0.169 µM | 0.0887 µM | 7 | 0.664 µM | 1.49 µM | 2.06 µM | 0.72 | 25000 µg/mL | – | – | – | – | – |
| Cl.Cn1c(=O)c2[nH]c(-c3ccc(C(=N)N)cc3)nc2n(C)c1=O.O [Me Me H C(NH)NH2, 1,3-Dimethyl-8-(4-amidinophenyl)xanthine hydrochloride hydrate] | 1.14 µM | 0.244 µM | 2.1 | 0.523 µM | 2.01 µM | 15.6 µM | 0.13 | – | – | – | – | – | – |
| CCCn1c(=O)c2[nH]c(-c3cccc(OCC(O)CO)c3)nc2n(CCC)c1=O (stereo not shown) [Pr Pr OCH2 (CH2 OH)2 H, 1,3-Dipropyl-8-[3-(2,3-dihydroxypropyloxy)phenyl]xanthine] | – | – | – | – | 0.49 µM | 1.04 µM | 0.47 | 250 µg/mL (≈ 621 µM) | – | – | – | – | – |
| CCCn1c(=O)c2[nH]c(-c3ccc(C(=N)N)cc3)nc2n(CCC)c1=O [Pr Pr H C(NH)NH2, 1,3-Dipropyl-8-(4-amidinophenyl)xanthine hydrochloride hemi-hydrate] | 0.081 µM | 0.0097 µM | 31.9 | 0.309 µM | 1.4 µM | 7.03 µM | 0.20 | 3000 µg/mL | – | – | – | – | – |
| CCCn1c(=O)c2[nH]c(-c3ccc(NC(=O)N(C)C)cc3)nc2n(CCC)c1=O [Pr Pr H NHC(=O)NMe2, 1,3-Dipropyl-8-(4-N,N-dimethylureidophenyl) xanthine] | 0.086 µM | – | – | 0.131 µM | 0.36 µM | 0.98 µM | 0.61 | 80 µg/mL (≈ 201 µM) | – | – | – | – | – |
| CNC(=N)c1ccc(-c2nc3c([nH]2)c(=O)n(C)c(=O)n3C)cc1 [Me Me H C(NH)NHMe, 1,3-Dimethyl-8-(4-N-methylamidinophenyl)xanthine hydrochloride hydrate] | 1.84 µM | – | – | – | 3.64 µM | 18.4 µM | 0.20 | – | – | – | – | – | – |
| CCCn1c(=O)c2[nH]c(-c3ccc(Cl)cc3N)nc2n(CCC)c1=O [PACPX, reference compound] | 0.045 µM | 0.0126 µM | 33.4 | 0.421 µM | 1.11 µM | 0.18 µM | 6.17 | < 0.4 µg/mL | unfavorable force and rate properties | little overt activity in animals | selective toward A1 --adenosine receptor | – | – |
| Cn1c(=O)c2[nH]c(-c3ccc(S(=O)(=O)O)cc3)nc2n(C)c1=O [(II), 8-[4-sulfophenyl]-theophylline] | – | – | – | – | – | – | – | – | – | – | – | 3 fold | decrease in selectivity |
| CCCn1c(=O)c2[nH]c(-c3ccc(CN)cc3)nc2n(CCC)c1=O.Cl.O [Pr Pr H CH2 NH2, 1,3-Dipropyl-8-(4-aminomethylphenyl)xanthine hydrochloride hydrate] | 0.0668 µM | 0.0163 µM | 26 | 0.432 µM | 0.57 µM | 2 µM | 0.28 | 500 µg/mL | – | – | – | – | – |
